Drawing on patent publication US7786109B2, “Tricyclic amide derivatives as modulators of H3 receptors” (Hoffmann-La Roche Inc., priority 2005, dated 2010), this text covers Ki for three compounds.

This experiment has as its target T1, histamine 3 receptor (H3R) (Homo sapiens, UniProt Q9Y5N1).
T1 construct: expressed in transfected cells; host or cells: CHO cells (HR3-CHO cell line), membranes
The experiment can be described thus: Binding assay with 3H-(R)α-methylhistamine (competition binding, membranes of the human HR3-CHO cell line). The conditions noted are these: competition against 3H(R)α-Methylhistamine (1 nM), Ki calculated from IC50 by Cheng-Prusoff. On the procedure: Binding assay with ^3H—(R)α-methylhistamine
Saturation binding experiments were performed using HR3-CHO membranes prepared as described in Takahashi, K, Tokita, S., Kotani, H. (2003) J. Pharmacol. Exp. Therapeutics 307, 213-218.
An appropriate amount of membrane (60 to 80 μg protein/well) was incubated with increasing concentrations of ^3H(R)α-Methylhistamine di-hydrochloride (0.10 to 10 nM). Non specific binding was determined using a 200 fold excess of cold (R)α-Methylhistamine dihydrobromide (500 nM final concentration). The incubation was carried out at room temperature (in deep-well plates shaking for three hours). The final volume in each well was 250 μl. The incubation was followed by rapid filtration on GF/B filters (pre-soaked with 100 μl of 0.5% PEI in Tris 50 mM shaking at 200 rpm for two hours). The filtration was made using a cell-harvester and the filter plates were then washed five times with ice cold washing buffer containing 0.5 M NaCl. After harvesting, the plates were dried at 55° C. for 60 min, then we added scintillation fluid (Microscint 40, 40 microl in each well) and the amount of radioactivity on the filter was determined in Packard top-counter after shaking the plates for two hours at 200 rpm at room temperature.
Binding Buffer: 50 mM Tris-HCl pH 7.4 and 5 mM MgCl2×6H2O pH 7.4. Washing Buffer: 50 mM Tris-HCl pH 7.4 and 5 mM MgCl2×6H2O and 0.5 M NaCl pH 7.4.
Indirect measurement of affinity of H3R inverse agonists: twelve increasing concentrations (ranging from 10 μM to 0.3 nM) of the selected compounds were always tested in competition binding experiments using membrane of the human HR3-CHO cell line. An appropriate amount of protein, e.g. approximately 500 cpm binding of RAMH at Kd, were incubated for 1 hour at room temperature in 250 μl final volume in 96-well plates in presence of ^3H(R)α-Methylhistamine (1 nM final concentration=Kd). […]
All compounds were tested at a single concentration in duplicates. […] Ki's were calculated from IC50 based on Cheng-Prusoff equation (Cheng, Y, Prusoff, W H (1973) Biochem Pharmacol 22, 3099-3108).

As usually defined, the Ki is the equilibrium dissociation constant of an inhibitor or competing ligand from its target.

T1 sequence (Q9Y5N1 whole entry): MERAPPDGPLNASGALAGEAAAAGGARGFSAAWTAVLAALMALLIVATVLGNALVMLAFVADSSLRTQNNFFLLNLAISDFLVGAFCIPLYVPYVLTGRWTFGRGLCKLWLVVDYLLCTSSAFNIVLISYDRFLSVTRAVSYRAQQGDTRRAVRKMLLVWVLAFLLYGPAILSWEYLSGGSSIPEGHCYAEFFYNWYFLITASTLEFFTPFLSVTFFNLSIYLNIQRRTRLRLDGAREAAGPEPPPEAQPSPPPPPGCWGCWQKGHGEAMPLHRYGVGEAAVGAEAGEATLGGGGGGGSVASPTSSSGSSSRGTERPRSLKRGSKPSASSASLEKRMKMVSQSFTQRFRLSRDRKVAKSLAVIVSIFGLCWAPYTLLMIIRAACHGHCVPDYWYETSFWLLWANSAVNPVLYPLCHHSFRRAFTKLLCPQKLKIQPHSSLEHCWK

Consider `C[C@@H]1CCCN1CCCOc1ccc2c(c1)cc1n2CCNC1=O` [Example 5, 8-[3-((R)-2-Methyl-pyrrolidin-1-yl)-propoxy]-3,4-dihydro-2H-pyrazino[1,2-a]indol-1-one], for which the Ki was 6.5 nM.

With `C[C@H]1CCCN1CCCOc1cnc2c(c1)cc1n2CCN(CC(F)(F)F)C1=O` [Example 92, 7-[3-((S)-2-Methyl-pyrrolidin-1-yl)-propoxy]-2-(2,2,2-trifluoro-ethyl)-3,4-dihydro-2H-2,4a,5-triaza-fluoren-1-one], the Ki is 28.8 nM.

Turning to `CC(C)N1CCC(Oc2ccc3c(c2)cc2n3CCCN(CC3CC3)C2=O)CC1` [Example 78, 2-Cyclopropylmethyl-9-(1-isopropyl-piperidin-4-yloxy)-2,3,4,5-tetrahydro-[1,4]diazepino[1,2-a]indol-1-one], the Ki is 17.1 nM.
